Tests used:
[1] = test system: paw tissues; test: Histology (H&E staining) of paw tissues after CAR injection; assay type: in vivo, Sprague-Dawley rats; conditions: for inflammatory cell infiltration and edema / histological score (H&E): rat paw tissues 6 h after CAR injection
Experimental: (§1) The biological effect of the complex, in comparison with the psilocin solution, against inflammation was tested by their administration to 8-12 weeks old male rats.
(§2) A composition comprising complex according to example 1, wherein the ratio of β-carotene to 2-hydroxypropylether β-cyclodextrin was 1:5, was used. Complexes (psilocin, β-carotene, ascorbic acid with ratio 1:1:1 and 2-hydroxypropylether β-cyclodextrin) containing two different concentrations of psilocin have been tested: • a complex containing 3 mg of psilocin, • a complex containing 10 mg of psilocin.
(§3) The study was performed using male Sprague-Dawley rats (200-250 g; Envigo, Milan, Italy). Food and water were accessible ad libitum. Rats were concurrently subjected to a singular subplantar injection of CAR (100 pL of saline solution containing 1% CAR). Paw edema was measured with a plethysmometer (Ugo Basile, Comerio, Varese, Italy) (Salvemini, D.; Wang, Z.-Q.; Wyatt, P. S.; Bourdon, D. M.; Marino, M. H.; Manning, P. T.; Currie, M. G., “Nitric oxide: A key mediator in the early and late phase of carrageenan-induced rat paw inflammation”, Br. J. Pharmacol. 1996, 118, 829-838) prior to CAR injection and every hour for 6 h. Edema was expressed as the increase in paw volume (mL) after CAR injection relative to the pre-injection value for all animals. Scores were expressed as paw volume difference (mL).
Paw tissues were collected 6 h after CAR injection. Samples were fixed in 10% formaldehyde solution in phosphate buffer saline (PBS) at room temperature for 24 h, dehydrated by graded series of ethanol and at the list embedded in Paraplast (Sherwood Medical, Mahwah, NJ, USA). Sections of 7-pm thickness were cut with a microtome, deparaffinized with xylene and stained with hematoxylin and eosin (H&E). All sections were examined using an Axiovision Zeiss (Milan, Italy) microscope by two investigators blinded to the treatment conditions. […]
All values are expressed as mean±standard deviation (SD) of N=10 observations. […] Data were analyzed by one-way ANOVA followed by a Bonferroni post-hoc test for multiple comparisons. […]

[2] = test system: mechanical allodynia; test: Pain behavior: mechanical allodynia, Von Frey test after CAR injection; assay type: in vivo, Sprague-Dawley rats; conditions: rats, 1-6 hours post CAR injection, as compared to CAR group
[3] = test system: CAR-induced paw edema; test: CAR-induced paw edema, paw volume by plethysmometer; assay type: in vivo, Sprague-Dawley rats; conditions: rats, measured every hour for 6 h after CAR, vs CAR group
Experimental: as §1, §2, §3
All values are expressed as mean±standard deviation (SD) of N=10 observations. For the in-vivo studies, N represents the number of animals studied. Data were analyzed by one-way ANOVA followed by a Bonferroni post-hoc test for multiple comparisons. A p-value less than 0.05 will be considered significant. #p<0.05 vs. CTR, *p<0.05 vs. CAR, ##p<0.01 vs. CTR, **p<0.01 vs. CAR, ###p<0.001 vs. CTR, ***p<0.001 vs. CAR, °p<0.05 vs. 3 m/Kg, § p<0.05 vs. 10 mg/Kg, °°p<0.01 vs. 3 mg/Kg, §§ p<0.01 vs. 10 mg/Kg, 000 p<0.001 vs. 3 mg/Kg, §§§ p<0.001 vs. 10 mg/Kg.

[4] = Stability test by NMR spectroscopy; assay type: physicochemical; conditions: Sample A: 22° C. with no light irradiation
Experimental: The same specimens were analyzed also by NMR Spectroscopy using Varian 500 MHz spectrometer equipped with a OneNMR probe.
Samples were recorded using a PRESAT pulse sequence suppressing the signal of H2O and EtOH acquiring 128 scans for each spectrum. H2O (4.64 ppm) was used as reference line.
For the NMR analysis, all samples were treated as follow: 530 pL were poured into NMR tube (5 mm i.d.) then coaxial tube was filled with D2O to lock the solvent frequency.

[5] = Stability test of psilocin for 24 hours: darkening and psilocin concentration by UHPLC-MS; assay type: physicochemical
Experimental: The inclusion complex obtained by the resuspension of the freeze-dried complex of (β-carotene and 2-hydroxypropylether p-cyclodextrin in the ratio 1:5 with 3 mg of psilocin dissolved in 1 mL of H2O:EtOH (8:2) solution, was tested to evaluate the inclusion complex stability.
The complex stability was evaluated for 24 hours, under different environmental conditions: • Sample A) 22° C. with no light irradiation • Sample B) 30° C. with no light irradiation • Sample C) 22° C. under UV irradiation (using an UVA lamp A=365 nm) • Sample D) Freeze-dried for 30 days • Sample E) 30° C. under UV irradiation (using an UVA lamp A=365 nm)
All the complex stability tests were compared to a “blank” psilocin solution in H2O:EtOH (8:2).
For evaluating psilocin stability chromatographic analyses were performed using a Nexera X2 UHPLC system coupled to a LCMS-8060 mass spectrometer (Shimadzu, Duisburg, Germany). Data acquisition and processing was performed using the LabSolutions software (version 5.95 Shimadzu). The separation of the various tryptamines was achieved by using an Ascentis Express 90 HILIC column (150×2.1 mm, 2.7 pm) (Merck Life Science) and a mobile phase composed of ammonium formate 0.1 M in water as solvent A, and acetonitrile as solvent B. The gradient program was as follows: 0 min, 90% B; 3 min, 75% B; 10 min, 20% B; 13 min 20% B; 15 min 90% B. The flow rate was 0.5 mL min−1; the column oven was set at 40° C. and the injection volume was 1 pL. Mobile phases were filtered through a 0.45 µm membrane.
The synthetic psilocin was weighed in a volumetric flask and diluted with water: ethanol (8:2) at a concentration of 3000 ppm. Then, it was serially diluted to get a final concentration of 0.10 ppm and analyzed according to the above reported method, in order to verify the stability for 24 hours. At time 0, it was 0.11 ppm. After 24 hours the concentration decreased to 0.04 ppm, showing a concentration loss of 60%.

[6] = test system: MPO; test: MPO analysis (marker of neutrophil infiltration) after CAR injection; assay type: in vivo, Sprague-Dawley rats; conditions: rats; for MPO activity: vs CAR group
Experimental: as §1, §2, §3
The activity of MPO (myeloperoxidase is an enzyme released by neutrophils and used as a marker of neutrophil infiltration) was assessed as previously described (Mullane, K. M.; Kraemer, R.; Smith, B. “Myeloperoxidase activity as a quantitative assessment of neutrophil infiltration into ischemic myocardium.” J. Pharmacol. Methods 1985, 14, 157-167). The rate of change in absorbance was calculated spectrophotometrically at 650 nm. MPO activity was measured in U per gram weight of wet tissue and was quantified as the quantity of enzyme degrading […] of peroxide 1 min at 37° C.
All values are expressed as mean±standard deviation (SD) of N=10 observations. For the in-vivo studies, N represents the number of animals studied. […]

[7] = Sample B: 30° C. with no light irradiation, 24 hours

## CN(C)CCc1c[nH]c2cccc(O)c12 [psilocin, 4-hydroxy-N,N-dimethyltryptamine]
[1]; 3 mg/Kg
  inflammatory cell infiltration and edema / histological score (H&E): meaningfully decreased
[1]; 10 mg/Kg
  inflammatory cell infiltration and edema / histological score (H&E): meaningfully decreased
[1]; all doses (3 and 10 mg/Kg), rats
  histological anti-inflammatory effect of psilocin as compared to the complex administration: better anti-inflammatory effect
[2]; 3 mg/Kg
  paw-withdrawal threshold (Von Frey): significantly increased
[2]; 10 mg/Kg
  paw-withdrawal threshold (Von Frey): significantly increased
[3]; 3 mg/Kg
  CAR-induced paw edema (paw volume): reduction of paw volume
[3]; 3 mg/Kg, listed as Psilocin
  CAR-induced paw edema (paw volume): significantly reduced
[3]; 10 mg/Kg
  CAR-induced paw edema (paw volume): reduction of paw volume
[3]; 10 mg/Kg, listed as Psilocin
  CAR-induced paw edema (paw volume): significantly reduced
[4]
  degradation product by NMR compared with the other solutions: less degradation product
[5]; Sample A: 22° C. with no light irradiation, 24 h
  darkening: started the darkening process since the first 2 hours of storing
[5]; Sample A: 22° C. with no light irradiation, H2O:EtOH (8:2), after 24 hours
  psilocin concentration after 24 hours: 0.04 ppm
[5]; Sample A: 22° C. with no light irradiation, H2O:EtOH (8:2), time 0
  psilocin concentration at time 0: 0.11 ppm
[5]; Sample A: 22° C. with no light irradiation, after 24 hours
  loss of psilocin concentration: 60%
[5]; Sample A: 22° C. with no light irradiation, time 0 vs after 24 hours
  psilocin concentration trend: decreased
[5]; [7]
  darkening: darkening process was observed
  psilocin concentration trend: decreased during 24 hours
[5]; Sample C: 22° C. under UV irradiation (365 nm), 24 h
  darkening: started the darkening process since the first 2 hours of storing
[5]; Sample C: 22° C. under UV irradiation (365 nm), 24 hours
  psilocin concentration trend: decreasing during 24 hours
[5]; Sample D: freeze-dried, redissolved 30 days after freeze-drying, ambient temperature, 24 h
  darkening: started the darkening process since the first 2 hours of storing
[5]; Sample E: 30° C. under UV irradiation (365 nm), 24 h
  darkening: Darkening was observed
[5]; Sample E: 30° C. under UV irradiation (365 nm), 24 hours
  psilocin concentration trend: decreased during 24 hours
[6]; 3 mg/Kg
  MPO activity: reduced the MPO activity
[6]; 10 mg/Kg
  MPO activity: reduced the MPO activity
[6]; all doses (3 and 10 mg/Kg)
  MPO activity effect of psilocin as compared to the complex administration: significant effect
